According to patent US6121290A, “Use of GABA uptake inhibitors as anti-tussive agents” (SmithKline Beecham Corporation, priority 1998, dated 2000):

Experiments:
GABA uptake = settings: in words, from cited literature; cited from earlier work
[1] = system: citric acid-induced cough; assay: Citric acid-induced cough in guinea pigs (anti-tussive activity in vivo); set-up: species or system Male Hartley Guinea pigs; settings: 0.4M citric acid, 30 min pre-treatment; for Treated (incidences of cough): coughs in 13 minutes; for % Inhibition: cough inhibition vs control
Method: Citric acid was nebulized for only one minute to the animals. Coughs were determined by examination of the flow signal and observation of the test animals.
To perform the experiments Male Hartley Guinea pigs weighing between 550, and 750 g were placed into a clear plastic exposure chamber with an internal volume of 6 l. A bias air flow was applied to the chamber at a flow rate of 2 l/min for the duration of the experiment.
An incidence of cough was denoted by a larger than normal inspiration (at least twice normal tidal deflection) followed immediately by a rapid, forceful expiration (more than three times the normal excursion from baseline). A cough was easily distinguished from animal movement, augmented breaths and gasps by close inspection of the data. Because a sneeze and cough have similar flow patterns, they were differentiated by visual observation of the animals.
Test compounds were administered via the IP route, and the pre-treatment time was 30 min. The aerosol was administered to the animals by connecting a small volume ultrasonic nebulizer (AeroSonic model 5000D Devilbis Sumerset, Pa.) to the bias-flow immediately before the exposure chamber inlet. The animals were challenged with 0.4M citric acid aerosol solution. A volume of 2 ml of citric acid solution was placed in the ultrasonic nebulizer. In one minute approximately 0.5 ml of the solution was nebulized to each animal. This has been previously shown to induce the cough reflex. The incidences of cough in 13 minutes (aerosolization time+observation time,) as well as time to onset of the first cough were recorded.

[2] = system: citric acid-induced cough; assay: as above; set-up: species or system Male Hartley Guinea pigs; settings: 0.4M citric acid; for Treated (incidences of cough): coughs in 13 minutes; for % Inhibition: cough inhibition vs control

O=C(O)C1=CCCNC1 [Compound 4, 1,2,5,6-tetrahydro-3-pyridinecarboxylic acid]
GABA uptake inhibitory activity (GABA uptake): having GABA uptake inhibitory activity | Treated (incidences of cough) ([1]; 6 mg ip): 7.6 | % Inhibition ([1]; 6 mg ip): 48.30% | Treated (incidences of cough) ([1]; 20 mg ip): 4.75 | % Inhibition ([1]; 20 mg ip): 67.69%

O=C(O)[C@@H]1CCCN(CCC=C(c2ccccc2)c2ccccc2)C1 [Compound 3, (R)-N-(4,4-diphenyl-3-butenyl)-3-piperidinecarboxylic acid]
GABA uptake inhibitory activity (GABA uptake): having GABA uptake inhibitory activity | Treated (incidences of cough) ([1]; 1 mg ip): 6.6 | % Inhibition ([1]; 1 mg ip): 49.23% | Treated (incidences of cough) ([1]; 10 mg ip): 2.8 | % Inhibition ([1]; 10 mg ip): 78.46% | Treated (incidences of cough) ([2]; 10 mg po): 8.2 | % Inhibition ([2]; 10 mg po): 42.25% | Treated (incidences of cough) ([2]; 30 mg po): 8 | % Inhibition ([2]; 30 mg po): 43.66%

O=C(O)C1=CCCN(CCC=C(c2ccccc2)c2ccccc2)C1 [Compound 5, N-(4,4-diphenyl-3-butenyl)-1,2,5,6-tetrahydro-3-pyridinecarboxylic acid]
Treated (incidences of cough) ([1]; 1 mg ip): 15.4 | % Inhibition ([1]; 1 mg ip): 5.79% | Treated (incidences of cough) ([1]; 3 mg ip): 12.4 | % Inhibition ([1]; 3 mg ip): 20.53% | Treated (incidences of cough) ([1]; 30 mg ip): 1 | % Inhibition ([1]; 30 mg ip): 92.48%

O=C(O)CC1CCN(CCC=C(c2ccccc2)c2ccccc2)C1 (centres unmarked) [Compound 1, N-(4,4-diphenyl-3-butenyl)-3-pyrrolidineacetic acid]
Treated (incidences of cough) ([1]; 20 mg ip): 7.2 | % Inhibition ([1]; 20 mg ip): 53.13%

O=C(O)[C@@H]1CNCC[C@@H]1O (relative stereo) [Compound 6, cis4-hydroxy-3-piperidinecarboxylic acid]
Treated (incidences of cough) ([1]; 10 mg ip): 16.3 | % Inhibition ([1]; 10 mg ip): 8.21% | Treated (incidences of cough) ([1]; 20 mg ip): 8.6 | % Inhibition ([1]; 20 mg ip): 35.82%

Cc1ccsc1C(=CCCN1CCC[C@@H](C(=O)O)C1)c1sccc1C [(R)-1-[4,4-bis(3-methyl-2-thienyl)-3-butenyl]-3-piperidinecarboxylic acid, reference compound]
GABA uptake inhibitory activity (GABA uptake): having GABA uptake inhibitory activity

O=C(O)C1CCCNC1 (centres unmarked) [Compound 2, 3-piperidinecarboxylic acid]
Treated (incidences of cough) ([1]; 20 mg ip): 9.75 | % Inhibition ([1]; 20 mg ip): 28.36%
